{"source": "patent US20260274828A1", "about": "“BROAD SPECTRUM ANTIFUNGAL KETO-ALKYL-PYRIDINIUM COMPOUNDS” (priority 2023, published 2026)", "key": {"A. fumigatus": {"test_system": "A. fumigatus", "experiment": "Planktonic MIC, CLSI guidelines", "type": "cell-based", "conditions": "Aspergillus fumigatus, read-out: MIC", "method": "(§1) Minimum inhibitory concentrations were determined using CLSI guidelines (Beattie & Krysan, 2021; Wiederhold, 2021). All yeasts were cultured overnight in 3 mL YPD at 30° C., then washed twice in sterile PBS. Two-fold serial dilutions of each compound were prepared in RMPI+MOPS pH 7 (Gibco RPMI 1640 with L-glutamine [11875-093] and 0.165M 352 MOPS), then 1×10^3 cells were added per well. Plates were incubated at 37° C. for 24 hours (C. albicans and S. cerevisiae) or 72 hours (C. neoformans). For A. fumigatus and F. oxysporum wells were inoculated with 1.25×10^4 conidia. Plates were incubated at 37° C. for 48 hours for A. fumigatus and 72 hours for F. oxysporum. All MICs are defined as the well with complete growth inhibition as determined by visual inspection with the exception of MICs of fluconazole against C. albicans where the MIC is defined as at least 50% reduction in growth compared to the control."}, "C. glabrata": {"test_system": "C. glabrata", "experiment": "Planktonic MIC, CLSI guidelines", "type": "cell-based", "conditions": "Nakaseomyces glabratus; strain KK2001", "method": "as §1"}, "C. neoformans": {"test_system": "C. neoformans", "experiment": "Planktonic MIC, CLSI guidelines", "type": "cell-based", "conditions": "Cryptococcus neoformans", "method": "as §1"}, "F. oxysporum": {"test_system": "F. oxysporum", "experiment": "Planktonic MIC, CLSI guidelines", "type": "cell-based", "conditions": "Fusarium oxysporum; strain DUMC Fo", "method": "as §1"}, "A. terreus": {"test_system": "A. terreus", "experiment": "Planktonic MIC, CLSI guidelines", "type": "cell-based", "conditions": "Aspergillus terreus; strain CFF S023"}, "C. albicans [1]": {"test_system": "C. albicans", "experiment": "Planktonic MIC, CLSI guidelines", "type": "cell-based, Candida albicans", "method": "as §1"}, "S. aureus": {"test_system": "S. aureus", "experiment": "Antibacterial MIC", "type": "cell-based", "conditions": "Staphylococcus aureus; strain Newman"}, "C. auris": {"test_system": "C. auris", "experiment": "Ex vivo porcine skin model of Candida auris colonization", "method": "The collection of porcine skin samples was conducted under protocols approved by the University of Wisconsin-Madison Institutional Animal Care and Use Committee in accordance with published National Institutes of Health (NIH) and United States Department of Agriculture (USDA) guidelines. Excised skin was cleaned and shaved as described previously (Johnson et al., 2022). Full-thickness samples were obtained by 12 mm punch and placed in 12-well plates containing 3 mL Dulbecco's Modified Eagle Medium (DMEM) (Lonza, Walkersville, MD, USA) supplemented with 10% fetal bovine serum (FBS) (Atlanta biologicals, Lawrenceville, GA, USA), penicillin (1,000 U/mL), and streptomycin (1 mg/mL) (Corning, Manassas, VA, USA) for 6 hours. Tissues were rinsed in DBPS and moved to semi-solid media (6:4 ratio of 1% agarose (BIO-RAD, Hercules, CA, USA) in DPBS:DMEM with 10% FBS). Paraffin wax was applied around the edge of the skin and 10 μL C. auris suspended in synthetic sweat medium at 10^7 cells/mL was applied. Samples were incubated at 24 hours and compound A (8 μg/mL or 16 μg/mL) in synthetic sweat medium was applied. After 24 hours a sterile swab was used to remove compound from skin surface. Samples were vortexed in DPBS and plated on YPD+chloramphenicol to assess viable burden."}, "C. auris 0381 biofilms": {"test_system": "C. auris 0381 biofilms", "experiment": "Biofilm phase antifungal activity assay (XTT reduction)", "type": "cell-based, Candida auris", "method": "These assays were performed as previously described (Mao et al., 2020; Ramage et al., 2001). C. albicans and C. auris, overnight cultures were washed in sterile PBS and adjusted to 1×10^6 CFU/mL in RPMI+MOPS pH 7. 100 μL cells were added to each well and incubated at 37° C. for 24 hours. A two-fold dilution series of the compounds was prepared in RPMI+MOPS with equal vehicle concentrations. Media was removed and biofilms were gently washed with PBS, then 200 μL of each drug dilution was added to wells and plates were incubated at 37° C. for an additional 24 hours. Media was removed and biofilms were gently washed with PBS, then 100 μL of XTT solution (0.83 mg/mL XTT sodium salt [Sigma, Cat #X4626]+32 μg/mL PMS [Sigma, Cat #P9625] in PBS) was added to each well. Plates were incubated at 37° C. for 30 minutes, then the absorbance was measured at 490 nm.\nThe metabolic activity of the biofilms was then assayed using the standard XXT reduction assay (Ramage et al., 2001). […] The biofilm activity of compound A was reduced by 4-fold relative to planktonic growth (MIC 4 μg/mL, Table 2)."}, "C. albicans [2]": {"test_system": "C. albicans", "experiment": "Planktonic MIC, CLSI guidelines", "type": "cell-based, Candida albicans", "conditions": "data not shown"}}, "note": "Where two headings read alike, the source gives them in different places."}
{"smiles": "Nc1cc[n+](CC(=O)c2ccc3c(c2)OC(c2ccccc2)(c2ccccc2)O3)cc1.[Cl-]", "note": "[Compound A]", "values": [{"measurement": "MIC", "setting": "A. fumigatus; strain AF293", "value": 2, "unit": "µg/mL"}, {"measurement": "MIC", "setting": "A. fumigatus; strain CEA10", "value": 32, "unit": "µg/mL"}, {"measurement": "MIC", "setting": "A. fumigatus; strain CFF S001", "value": 64, "unit": "µg/mL"}, {"measurement": "MIC", "setting": "A. fumigatus; strain CFF S003", "value": 4, "unit": "µg/mL"}, {"measurement": "MIC", "setting": "A. fumigatus; strain CFF S007", "value": 64, "unit": "µg/mL"}, {"measurement": "MIC", "setting": "A. fumigatus; strain CFF S008", "value": 64, "unit": "µg/mL"}, {"measurement": "MIC", "setting": "A. fumigatus; strain CFF S014", "value": 8, "unit": "µg/mL"}, {"measurement": "MIC", "setting": "A. fumigatus; strain CFF S029", "value": 4, "unit": "µg/mL"}, {"measurement": "MIC", "setting": "A. fumigatus; strain Cas^R", "value": 32, "unit": "µg/mL"}, {"measurement": "MIC", "setting": "A. fumigatus; strain SPF98", "value": 64, "unit": "µg/mL"}, {"measurement": "MIC", "setting": "C. glabrata", "value": 4, "unit": "µg/mL"}, {"measurement": "MIC", "setting": "C. neoformans; strain DUMC 118.00", "value": 4, "unit": "µg/mL"}, {"measurement": "MIC", "setting": "C. neoformans; strain DUMC 122.01", "value": 4, "unit": "µg/mL"}, {"measurement": "MIC", "setting": "C. neoformans; strain H99", "value": 4, "unit": "µg/mL"}, {"measurement": "MIC", "setting": "F. oxysporum", "value": 16, "unit": "µg/mL"}, {"measurement": "MIC", "setting": "A. terreus", "value": "2 to 4", "unit": "µg/mL"}, {"measurement": "MIC", "setting": "C. albicans [1]; Candida albicans, strain SC5314, read-out: MIC", "value": 4, "unit": "µg/mL"}, {"measurement": "MIC", "setting": "C. albicans [1]; Candida albicans, strain TWO #15, fluconazole-resistant, read-out: MIC", "value": 4, "unit": "µg/mL"}, {"measurement": "MIC", "setting": "C. albicans [1]; strain TWO #17, fluconazole-resistant", "value": 4, "unit": "µg/mL"}, {"measurement": "MIC", "setting": "S. aureus", "value": 32, "unit": "µg/mL"}, {"measurement": "reduction of fungal burden of colonized porcine skin", "setting": "C. auris; 8 μg/mL, 24 hours after a single treatment", "value": "about 1 log10"}, {"measurement": "fungal burden of colonized porcine skin", "setting": "C. auris; 16 μg/mL versus 8 μg/mL, 24 hours", "value": "not reduced further"}, {"measurement": "reduction of C. auris colonization of skin", "setting": "C. auris; 8 or 16 μg/mL, 24 hours", "value": "about 1 log10 CFU"}, {"measurement": "activity during planktonic and inanimate-substrate biofilm growth", "setting": "C. auris 0381 biofilms", "value": "comparable activity"}, {"measurement": "change in MIC with glycerol instead of glucose as carbon source", "setting": "C. albicans [2]", "value": "not observed"}]}
